pEC50: −log10 of the molar value. Where a name gives a salt, the structure may show the parent alone.

As a reminder, the pEC50 is the negative decadic logarithm of the EC50, by convention in mol/L.

The assay relates to Influenza A virus. Description: microbe, parasite or virus in culture. Conditions: MDCK.
With `CC1(N)C2CC3CC(C2)CC1C3` (stereo unspecified), the pEC50 was greater than 5.70.
The result for `CCCC1(N)C2CC3CC(C2)CC1C3` (stereo unspecified) reads greater than 5.77; that for `C1CNC2(C1)C1CC3CC(C1)CC2C3` (stereo unspecified), 5.74.
Turning to `CC1(O)C2CC3CC(C2)CC1C3` (stereo unspecified), the pEC50 is 4.97.
As for `CCC1(N)C2CC3CC(C2)CC1C3` (stereo unspecified), the figure is greater than 5.72; as for `NC12CC3CC(CC(C3)C1)C2` [AMANTADINE HYDROCHLORIDE], greater than 6.05.

Values taken from ChEMBL document CHEMBL1152149 (Bioorg Med Chem Lett, 2008).
